Assay results published in PubChem BioAssay AID588774 (The Scripps Research Institute Molecular Screening Center, 2011).
Calls of active or inactive are those of the source.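 How the source made its calls: active means target enzyme inhibited at least 50% at a set dose, and selective over every off-target enzyme by a set factor; inactive means weaker inhibition or too little selectivity.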

Columns and labels:
[1] = pPAFAH inhibition and serine hydrolase selectivity, SAR follow-up, selectivity assay for pPAFAH inhibitor project, biochemical, gel-based, FP-Rh fluorescence, complex proteome, SAR compounds (AID 588774); conditions: gel-based competitive ABPP, at 10 µM;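 on inhibition: 0% = DMSO-only band intensity and 100% = blank gel background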
[2] = target: Monoglyceride lipase (Mus musculus) (UniProt O35678); test: as above; conditions: gel-based competitive ABPP, MAGL, stronger effect = higher value
[3] = system: MW 32 kDa; test: as above; conditions: gel-based competitive ABPP, at 1 µM, stronger effect = higher value
[4] = system: pPAFAH; test: as above; conditions: gel-based competitive ABPP, anti-targets inhibited, at 10 µM
[5] = target: Platelet-activating factor acetylhydrolase (Mus musculus) (UniProt Q60963); test: as above; conditions: gel-based competitive ABPP, pPAFAH, stronger effect = higher value
[6] = system: FAAH; test: as above; conditions: gel-based competitive ABPP, stronger effect = higher value
[7] = target: ABHD4 (UniProt Q8VD66); test: as above; conditions: gel-based competitive ABPP, stronger effect = higher value
[8] = system: LYPLA1; test: as above; conditions: gel-based competitive ABPP, stronger effect = higher value
[9] = system: MW 30 kDa; test: as above; conditions: gel-based competitive ABPP, at 1 µM, stronger effect = higher value
[10] = system: LYPLA2; test: as above; conditions: gel-based competitive ABPP, stronger effect = higher value
[11] = system: ABHD3; test: as above; conditions: gel-based competitive ABPP, stronger effect = higher value
[12] = system: ABHD6; test: as above; conditions: gel-based competitive ABPP, stronger effect = higher value

ABHD4, sequence (Q8VD66 whole entry, looked up): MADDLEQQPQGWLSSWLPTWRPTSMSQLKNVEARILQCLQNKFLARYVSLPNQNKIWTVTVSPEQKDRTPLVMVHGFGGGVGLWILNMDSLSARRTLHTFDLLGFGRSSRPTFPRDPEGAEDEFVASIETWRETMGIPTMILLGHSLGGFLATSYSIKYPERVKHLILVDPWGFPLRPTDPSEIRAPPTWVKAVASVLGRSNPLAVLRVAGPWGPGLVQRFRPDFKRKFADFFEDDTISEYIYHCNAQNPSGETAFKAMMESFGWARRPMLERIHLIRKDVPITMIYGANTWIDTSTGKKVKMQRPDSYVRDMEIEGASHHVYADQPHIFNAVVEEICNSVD
Platelet-activating factor acetylhydrolase (Mus musculus), sequence (Q60963 whole entry, looked up): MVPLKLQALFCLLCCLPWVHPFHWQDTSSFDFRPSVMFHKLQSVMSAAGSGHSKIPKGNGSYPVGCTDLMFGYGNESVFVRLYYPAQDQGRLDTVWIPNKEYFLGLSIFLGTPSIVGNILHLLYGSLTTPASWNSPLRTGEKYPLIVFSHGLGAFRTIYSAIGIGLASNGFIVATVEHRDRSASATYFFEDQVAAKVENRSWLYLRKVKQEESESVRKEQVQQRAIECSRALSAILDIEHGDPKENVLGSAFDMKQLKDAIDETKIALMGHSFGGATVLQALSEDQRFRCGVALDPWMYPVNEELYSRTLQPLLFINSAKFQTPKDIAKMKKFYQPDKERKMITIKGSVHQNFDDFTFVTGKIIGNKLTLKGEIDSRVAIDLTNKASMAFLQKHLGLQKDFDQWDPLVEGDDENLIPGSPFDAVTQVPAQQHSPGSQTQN
Monoglyceride lipase (Mus musculus), sequence (O35678 whole entry, looked up): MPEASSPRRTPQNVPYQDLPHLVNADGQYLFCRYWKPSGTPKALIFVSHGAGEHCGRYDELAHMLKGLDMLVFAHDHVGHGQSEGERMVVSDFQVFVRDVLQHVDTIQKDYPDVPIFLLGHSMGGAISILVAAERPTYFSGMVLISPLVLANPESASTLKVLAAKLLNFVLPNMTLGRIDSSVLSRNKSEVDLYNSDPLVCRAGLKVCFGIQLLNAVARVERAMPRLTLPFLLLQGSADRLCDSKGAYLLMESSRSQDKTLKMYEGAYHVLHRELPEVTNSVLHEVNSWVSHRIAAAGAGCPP

Row | SMILES | anti-target count ([1]; ABHD3, anti-targets inhibited) | anti-target count ([1]; ABHD4, anti-targets inhibited) | anti-target count ([1]; ABHD6, anti-targets inhibited) | anti-target count ([1]; FAAH, anti-targets inhibited) | anti-target count ([1]; LYPLA1, anti-targets inhibited) | anti-target count ([1]; LYPLA2, anti-targets inhibited) | anti-target count ([1]; MAGL, anti-targets inhibited) | inhibition ([2]; at 10 µM) | inhibition ([2]; inhibition, at 1 µM) | anti-target count [4] | inhibition ([5]; at 10 µM) | inhibition ([5]; inhibition, at 0.1 µM) | inhibition ([5]; inhibition, at 1 µM) | inhibition ([6]; at 10 µM) | inhibition ([6]; inhibition, at 0.1 µM) | inhibition ([6]; inhibition, at 1 µM) | inhibition ([7]; at 10 µM) | inhibition ([8]; at 10 µM) | inhibition [9] | inhibition ([10]; at 10 µM) | other results
1 | Cc1cc(N2CCN(C(=O)n3ncc(-c4ccccc4)n3)CC2)c2ccccc2n1 | 9 | 9 | 9 | 9 | 9 | 9 | 9 | 58% (inactive) | 36% | 9 | 99% | 99% | 99% | 83% | 63% | 82% | 100% (inactive) | 96% (inactive) | 51% | 99% (inactive) | inhibition [3]: 43%; inhibition ([7]; inhibition, at 1 µM): 85%; inhibition ([8]; inhibition, at 1 µM): 86%; inhibition ([10]; inhibition, at 1 µM): 55%; inhibition ([11]; at 10 µM): 100% (inactive); inhibition ([11]; inhibition, at 1 µM): 85%; inhibition ([12]; at 10 µM): 71% (inactive); inhibition ([12]; inhibition, at 1 µM): 54%
2 | Cc1cc(N2CCN(C(=O)n3ncc(-c4ccc(OC(F)(F)F)cc4)n3)CC2)c2ccccc2n1 | 9 | 9 | 9 | 9 | 9 | 9 | 9 | 53% (inactive) | 35% | 9 | 100% | 100% | 100% | 92% (inactive) | 38% | 91% | 100% | 100% (inactive) | 44% | 96% (inactive) | inhibition [3]: 43%; inhibition ([7]; inhibition, at 0.1 µM): 75%; inhibition ([7]; inhibition, at 1 µM): 92%; inhibition ([8]; inhibition, at 1 µM): 51%; inhibition ([10]; inhibition, at 1 µM): 39%; inhibition ([11]; at 10 µM): 100%; inhibition ([11]; inhibition, at 0.1 µM): 75%; inhibition ([11]; inhibition, at 1 µM): 92%; inhibition ([12]; at 10 µM): 74% (inactive); inhibition ([12]; inhibition, at 0.1 µM): 22%; inhibition ([12]; inhibition, at 1 µM): 60%
3 | COc1ccc(-c2cnn(C(=O)N3CCN(c4cc(C)nc5ccccc45)CC3)n2)cc1 | 8 | 8 | 8 | 8 | 8 | 8 | 8 | 45% (inactive) | 35% | 8 | 96% | 85% | 88% | 86% | 60% | 83% | 100% (inactive) | 92% (inactive) | 50% | 95% (inactive) | inhibition [3]: 52%; inhibition ([7]; inhibition, at 1 µM): 86%; inhibition ([8]; inhibition, at 0.1 µM): 4%; inhibition ([8]; inhibition, at 1 µM): 74%; inhibition ([10]; inhibition, at 1 µM): 56%; inhibition ([11]; at 10 µM): 100% (inactive); inhibition ([11]; inhibition, at 1 µM): 86%; inhibition ([12]; at 10 µM): 70% (inactive); inhibition ([12]; inhibition, at 0.1 µM): 12%; inhibition ([12]; inhibition, at 1 µM): 58%
4 | Cc1cc(N2CCN(C(=O)n3ncc(-c4ccc(Cl)c(Cl)c4)n3)CC2)c2ccccc2n1 | 8 | 8 | 8 | 8 | 8 | 8 | 8 | 40% (inactive) | 26% | 8 | 100% | 97% | 98% | 88% (inactive) | 29% | 74% | 100% | 84% (inactive) | 36% | 61% (inactive) | inhibition [3]: 12%; inhibition ([7]; inhibition, at 0.1 µM): 69%; inhibition ([7]; inhibition, at 1 µM): 96%; inhibition ([8]; inhibition, at 1 µM): 24%; inhibition ([10]; inhibition, at 1 µM): 18%; inhibition ([11]; at 10 µM): 100%; inhibition ([11]; inhibition, at 0.1 µM): 69%; inhibition ([11]; inhibition, at 1 µM): 96%; inhibition ([12]; at 10 µM): 61% (inactive); inhibition ([12]; inhibition, at 0.1 µM): 13%; inhibition ([12]; inhibition, at 1 µM): 43%
5 | Cc1cc(N2CCN(C(=O)n3ncc(-c4ccc([N+](=O)[O-])cc4)n3)CC2)c2ccccc2n1 | 9 | 9 | 9 | 9 | 9 | 9 | 9 | 84% (inactive) | 68% | 9 | 99% | 97% | 99% | 87% (inactive) | 6% | 81% | 100% (inactive) | 100% (inactive) | 67% | 100% (inactive) | inhibition ([2]; inhibition, at 0.1 µM): 28%; inhibition [3]: 59%; inhibition ([7]; inhibition, at 0.1 µM): 11%; inhibition ([7]; inhibition, at 1 µM): 94%; inhibition ([8]; inhibition, at 0.1 µM): 5%; inhibition ([8]; inhibition, at 1 µM): 86%; inhibition ([10]; inhibition, at 1 µM): 58%; inhibition ([11]; at 10 µM): 100% (inactive); inhibition ([11]; inhibition, at 0.1 µM): 11%; inhibition ([11]; inhibition, at 1 µM): 94%; inhibition ([12]; at 10 µM): 72% (inactive); inhibition ([12]; inhibition, at 0.1 µM): 17%; inhibition ([12]; inhibition, at 1 µM): 59%
6 | O=C(Oc1noc2cc(Cl)ccc12)N1CCCCC1 | 2 | 2 | 2 | 2 | 2 | 2 | 2 | 23% (inactive) | 13% | 2 | 100% | 82% | 85% | 100% | 96% | 100% | 0% (inactive) | 0% (inactive) | 40% | 0% (inactive) | inhibition ([11]; at 10 µM): 0% (inactive); inhibition ([12]; at 10 µM): 46% (inactive); inhibition ([12]; inhibition, at 0.1 µM): 20%; inhibition ([12]; inhibition, at 1 µM): 38%
